From article PMC11527929 (European Journal of Nuclear Medicine and Molecular Imaging, 2024)

Tests used:
H446 cells [1] = assay: Cell viability, AlamarBlue HS assay; format: cell-based; conditions: Homo sapiens, NCI-H446, PARPi alone for 72 h, 3 independent experiments
Experimental: (§1) Cell viability was determined using the AlamarBlue high sensitivity (HS) assay (Thermo Fisher Scientific, #A50101). 5,000 cells per well were seeded in 96-well black clear F-bottom plates (H446) or 96-well black clear V-bottom plates (H69). H69 suspension cells were centrifuged and resuspended for each washing step. […] All wells, including untreated wells, contained 0.5% (v/v) DMSO throughout the assay. 96 h after seeding, medium was removed and resazurin (AlamarBlue HS) solution was added to each well at a final concentration of 10% (v/v) and incubated for 1 h at 37 °C before fluorescence was measured using a Biotek Synergy HT plate reader (Excitation: 540/35 nm, Emission: 590/20 nm). Relative viability was calculated in relation to “untreated” wells. We carried out three biological repeats with 3–6 technical replicates per plate. IC50-values were computed by applying the nonlinear regression function (Dose–response – Inhibition; Inhibitor vs. normalized response) in GraphPad Prism 9.

H69 cells = assay: Cell viability, AlamarBlue HS assay; format: cell-based; conditions: Homo sapiens, NCI-H69, PARPi alone for 72 h, 3 independent experiments
Experimental: as §1

H446 cells [2] = assay: Clonogenic assay; format: cell-based, human; conditions: 0.5 µM PARPi 72 h and/or 12.5 kBq [177Lu]Lu-DOTA-TOC 24 h, colonies after 7 days, mean of 2 independent experiments
Experimental: H446 cells were seeded in 6-well plates 48 h prior to the experiment. […] Following treatment, compounds were removed, and fresh medium was added. After 7 days, colonies were fixed with cold methanol, stained with 5% crystal violet in PBS and subsequently counted. Survival fractions were calculated by dividing the plating efficiency as counted colonies divided by seeded cells of the respective treatment group through the plating efficiency of the untreated control group.

H69 xenografts [3] = assay: In vivo treatment study, single PRRT dose; design: species or system athymic nude mice; conditions: for tumor doubling time: PARPi 10 mg/kg i.p. days 1–5 and 8–12, PRRT ~40 MBq single dose on day 3, untreated 3.6 days; for time after start of treatment to mean tumor volume of 400 mm^3: untreated 10 days
Experimental: Authorization for all animal experiments was obtained from the Regierung von Oberbayern. Mice were housed under specific-pathogen free conditions with access to mouse chow and water ad libitum. […] Animals were regularly monitored as defined in the license.
Mice in the PARPi and combination therapy groups received daily i.p. injections of PARPi on days 1–5 and 8–12 at a dose of 10 mg/kg. […] Length, width and depth of the subcutaneous tumors were measured daily using a caliper and tumor volume was calculated using the ellipsoid formula. Mice were weighed regularly after start of the treatment. Mice were euthanized when they reached pre-defined criteria. […] In the H69 cohort, one animal per group was euthanized 3 days after PRRT (or equivalent time) and tumor, bone and kidney tissues were processed for histopathology.

H446 xenografts = assay: In vivo treatment study, single PRRT dose; design: species or system athymic nude mice; conditions: for tumor doubling time: PARPi 10 mg/kg i.p. days 1–5 and 8–12, PRRT ~40 MBq single dose on day 3, untreated 3.6; for median survival: single PRRT dose study, untreated 12 days
Experimental: (§2) Authorization for all animal experiments was obtained from the Regierung von Oberbayern. Mice were housed under specific-pathogen free conditions with access to mouse chow and water ad libitum. Female 7–8 weeks old athymic nude mice (Crl:NU/NCr-Foxn1nu, Charles River Laboratories, Sulzfeld) were subcutaneously injected with 1–4 × 10^6 H69 or H446 cells in 1:1 RPMI-1640 medium:Matrigel (Corning Inc., #11543550). Animals were regularly monitored as defined in the license.
(§3) 10–15 days after xenografting, mice were randomized into 4 (H446) or 6 (H69) groups after stratification for tumor size to ensure a uniform initial tumor size distribution (H446: ~ 150 mm^3; H69: ~ 60 mm^3; Supplementary Fig. 2A, B). Mice in the PARPi and combination therapy groups received daily i.p. injections of PARPi on days 1–5 and 8–12 at a dose of 10 mg/kg. […] Length, width and depth of the subcutaneous tumors were measured daily using a caliper and tumor volume was calculated using the ellipsoid formula. Mice were weighed regularly after start of the treatment. Mice were euthanized when they reached pre-defined criteria. During the study, only the criteria of tumor growth (single dimension ≤ 15 mm) or maximum observation time came into effect. In the H69 cohort, one animal per group was euthanized 3 days after PRRT (or equivalent time) and tumor, bone and kidney tissues were processed for histopathology.

bone marrow and kidney = assay: Histopathology (H&E) after in vivo treatment; design: species or system athymic nude mice; conditions: H69 cohort, single dose study; day 3 after PRRT; one animal per group
Experimental: as §3
All samples were fixated in 4% PFA for 24 h and subsequently stored in 70% ethanol at 4 °C until the radioactivity had fully decayed. Samples containing bone for bone marrow analysis were decalcified using OSTEOSOFT® (Merck) solution. Formalin-fixed paraffin embedded (FFPE) tissues were cut into 2 µm sections using a microtome. After deparaffinization and rehydration, tissue sections were subjected to standard H&E staining. Tumor sections were additionally subjected to IHC. […]

H69 xenografts [4] = assay: In vivo treatment study, fractionated PRRT dose; design: species or system athymic nude mice; conditions: three-fractionated arm: 3 × 20 MBq PRRT days 3, 9, 15, Olaparib 10 mg/kg i.p. days 1–5, 7–11, 13–17, untreated 27 days
Experimental: as §2
Prior to the beginning of treatment, mice were randomly assigned to 7 treatment groups (n = 5–6 animals/group) with an initial mean tumor volume of approx. 50 mm^3 per group (Supplementary Fig. 2C). […] Body weight and tumor volumes were determined every 2–3 days. Animals were sacrificed when pre-defined endpoint criteria or humane endpoint was reached. In this study, only the pre-defined endpoint, a tumor volume of 1000 mm^3 with a maximal size of ≤ 15 mm in a single dimension, was reached. After a maximum observation period of 4 weeks after the last treatment, the study terminated in accordance with the animal protocol.

SCLC = conditions: six SCLC patients; no response on CT scans; cited from earlier work
Excerpt: An alternative therapeutic approach for extended-stage disease could be peptide-receptor radionuclide therapy (PRRT) with somatostatin receptor (SSTR) ligands. The vast majority of SCLC (> 80%) express neuroendocrine markers, and about 50% of all SCLCs express significant levels of somatostatin-receptor type 2 (SSTR2). […] To date, clinical outcomes of retrospective series, which investigated SSTR2-targeted PRRT in SCLC have been rather inconclusive. In one trial, six patients treated with ^90Y-D ...

Compound	IC50 (H446 cells [1]) [µM]	IC50 (H69 cells) [µM]	mean surviving fraction, of untreated cells (H446 cells [2]) [%]	tumor doubling time (H69 xenografts [3]) [days]	time after start of treatment to mean tumor volume of 400 mm^3 (H69 xenografts [3]; single PRRT dose study) [days]	tumor doubling time (H446 xenografts) [days]	median survival (H446 xenografts) [days]	angiectasis in the bone marrow (H&E) (bone marrow and kidney)	bone marrow cellularity (H&E) (bone marrow and kidney)	median survival (H69 xenografts [3]; single PRRT dose study, untreated 18 days) [days]	median survival (H69 xenografts [4]) [days]	median progression-free survival (SCLC) [days]
O=C(c1cc(Cc2n[nH]c(=O)c3ccccc23)ccc1F)N1CCN(C(=O)C2CC2)CC1 [Olaparib]	20 to 40	20 to 40	7	4.0	13	–	–	–	–	–	–	–
CNCc1ccc(-c2[nH]c3cc(F)cc4c3c2CCNC4=O)cc1 [Rucaparib]	20 to 40	20 to 40	13	4.1	13	3.9	13	low levels of angiectasis	slight bone marrow hypercellularity	–	–	–
C[C@@H](O)[C@@H]1NC(=O)[C@H](CCCCN)NC(=O)[C@@H](Cc2c[nH]c3ccccc23)NC(=O)[C@H](Cc2ccc(O)cc2)NC(=O)[C@@H](NC(=O)[C@@H](Cc2ccccc2)NC(=O)CN2CCN(CC(=O)O)CCN(CC(=O)O)CCN(CC(=O)O)CC2)CSSC[C@@H](C(=O)N[C@H](CO)[C@@H](C)O)NC1=O [[^177Lu]Lu-DOTA-TOC, metal not drawn]	–	–	–	6.4	17	3.7	11	–	–	24	34	–
C[C@@H](O)[C@@H]1NC(=O)[C@H](CCCCN)NC(=O)[C@@H](Cc2c[nH]c3ccccc23)NC(=O)[C@H](Cc2ccc(O)cc2)NC(=O)[C@@H](NC(=O)[C@@H](Cc2ccccc2)NC(=O)CN2CCN(CC(=O)[O-])CCN(CC(=O)[O-])CCN(CC(=O)[O-])CC2)CSSC[C@@H](C(=O)N[C@H](CO)[C@@H](C)O)NC1=O.[90Y+3] [^90Y-DOTATOC]	–	–	–	–	–	–	–	–	–	–	–	38
